Data set [1] has as its target Transcription factor GATA-4 (Homo sapiens) (UniProt P43694). The data set is described as follows: Inhibition of GATA4-DNA interaction in HEK293 nuclear extract at 50 uM after 15 mins by EMSA assay. The data set is classed as cell-free. Background: In EMSA bound probe runs differently from free probe, usually more slowly.
For data set [2], the system named is HeLa. The data set is described as follows: Drug uptake in human HeLa cells after 24 hrs. The class given is ADME, cell-based.
Data set [3] deals with Transcription factor GATA-4 (Homo sapiens) (UniProt P43694). Briefly: Inhibition of GATA4- mediated BNP promoter activation in HeLa cells at 100 uM after 24 hrs by luciferase reporter gene assay. The data set is classed as cell-based. (In general: A reporter such as luciferase makes a cellular process visible.)
In data set [4] the test system is HEK293. Briefly: Cytotoxicity in human HEK293 cells assessed as effect on cell proliferation upto 150 uM. The data set is classed as cell-based.
The subject of data set [5] is HeLa. The data set is described as follows: Cytotoxicity in human HeLa cells assessed as cell death upto 150 uM. The class given is cell-based.
Data set [6] concerns the target Transcription factor GATA-4 (Homo sapiens) (UniProt P43694). Briefly: Inhibition of GATA4-DNA interaction in HEK293 nuclear extract at 50 to 150 uM after 15 mins by EMSA assay.
Data set [7] concerns the target T1, T-box transcription factor TBX5 (Homo sapiens) (UniProt Q99593).
T1 sequence (whole entry): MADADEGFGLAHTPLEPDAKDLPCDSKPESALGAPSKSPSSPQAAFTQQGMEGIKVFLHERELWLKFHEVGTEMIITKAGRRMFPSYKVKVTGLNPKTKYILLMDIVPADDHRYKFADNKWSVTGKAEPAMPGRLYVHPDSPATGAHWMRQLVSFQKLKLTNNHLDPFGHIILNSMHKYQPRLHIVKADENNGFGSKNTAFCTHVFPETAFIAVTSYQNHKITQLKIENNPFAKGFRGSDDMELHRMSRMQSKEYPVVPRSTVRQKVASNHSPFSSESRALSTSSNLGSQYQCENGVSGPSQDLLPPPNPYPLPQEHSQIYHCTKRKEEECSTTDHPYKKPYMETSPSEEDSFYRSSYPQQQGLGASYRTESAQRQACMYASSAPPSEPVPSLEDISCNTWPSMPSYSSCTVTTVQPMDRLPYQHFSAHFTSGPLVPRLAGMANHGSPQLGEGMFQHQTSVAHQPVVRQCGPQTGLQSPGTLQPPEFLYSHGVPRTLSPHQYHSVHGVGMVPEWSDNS
Briefly: Effect on Tbx5 in HEK293 nuclear extract at 50 uM after 15 mins by EMSA assay.

Data set [8] has as its target Transcription factor GATA-4 (Homo sapiens) (UniProt P43694). Briefly: Inhibition of GATA4-DNA interaction in HEK293 nuclear extract at 100 uM after 15 mins by EMSA assay. The class given is cell-free.
Data set [9] concerns the target Transcription factor GATA-4 (Mus musculus) (UniProt Q08369). The data set is described as follows: Inhibition of GATA4 in mouse C2C12 cells assessed as myoblast differentiation to myotubes at 100 uM after 48 hrs by immunofluorescence assay in presence of 20 % FBS relative to control. The data set is classed as cell-based.
Data set [10] has as its system HEK293. Briefly: Cytotoxicity in human HEK293 cells assessed as cell death upto 150 uM. The class given is cell-based.
Data set [11] has as its system C2C12. The data set is described as follows: Cytotoxicity in mouse C2C12 cells assessed as cell death upto 150 uM. The class given is cell-based.
Data set [12] relates to C2C12. Briefly: Cytotoxicity in mouse C2C12 cells assessed as effect on cell proliferation upto 150 uM. The class given is cell-based.
Data set [13] relates to HeLa. The data set is described as follows: Cytotoxicity in human HeLa cells assessed as effect on cell proliferation upto 150 uM. The class given is cell-based.
The target in data set [14] is T2, Nuclear factor of activated T-cells, cytoplasmic 1 (Homo sapiens) (UniProt O95644).
T2 sequence (whole entry): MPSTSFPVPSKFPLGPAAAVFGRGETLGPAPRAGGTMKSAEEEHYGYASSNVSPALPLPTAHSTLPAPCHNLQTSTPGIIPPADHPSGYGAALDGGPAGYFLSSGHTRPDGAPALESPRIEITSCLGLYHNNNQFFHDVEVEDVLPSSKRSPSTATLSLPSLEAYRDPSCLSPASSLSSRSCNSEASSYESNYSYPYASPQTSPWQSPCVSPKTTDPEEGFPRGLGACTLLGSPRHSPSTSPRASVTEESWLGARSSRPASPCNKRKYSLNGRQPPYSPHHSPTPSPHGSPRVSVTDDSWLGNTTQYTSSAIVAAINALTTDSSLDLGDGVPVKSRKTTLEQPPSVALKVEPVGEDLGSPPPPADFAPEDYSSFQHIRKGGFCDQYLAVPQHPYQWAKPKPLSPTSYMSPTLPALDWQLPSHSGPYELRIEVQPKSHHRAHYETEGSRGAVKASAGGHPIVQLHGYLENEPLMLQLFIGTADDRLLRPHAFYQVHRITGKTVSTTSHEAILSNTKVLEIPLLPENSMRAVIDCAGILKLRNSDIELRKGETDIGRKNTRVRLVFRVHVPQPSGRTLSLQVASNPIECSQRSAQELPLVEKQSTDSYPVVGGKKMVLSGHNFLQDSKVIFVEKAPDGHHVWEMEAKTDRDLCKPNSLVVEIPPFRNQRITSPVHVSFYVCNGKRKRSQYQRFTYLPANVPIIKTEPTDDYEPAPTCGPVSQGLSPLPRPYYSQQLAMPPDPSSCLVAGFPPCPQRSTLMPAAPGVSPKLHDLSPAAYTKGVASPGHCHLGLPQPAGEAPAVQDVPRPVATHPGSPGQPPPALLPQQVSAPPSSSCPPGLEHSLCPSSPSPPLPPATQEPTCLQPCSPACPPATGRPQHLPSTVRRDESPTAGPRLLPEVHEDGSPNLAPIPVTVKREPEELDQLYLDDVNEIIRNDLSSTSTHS
Briefly: Effect on NFATc1 in HEK293 nuclear extract at 50 uM after 15 mins by EMSA assay.

Data set [15] concerns the target Transcription factor GATA-4 (Mus musculus) (UniProt Q08369). Briefly: Inhibition of GATA4 in mouse C2C12 cells assessed as myoblast differentiation to myotubes at 100 uM after 48 hrs by immunofluorescence assay in presence of 0.5% FBS relative to control. The data set is classed as cell-based.
Data set [16] is described as follows: Lipophilicity, log P of compound. The class given is physicochemical. The settings on record: octanol/water.
Data set [17] concerns the target Transcription factor GATA-4 (Mus musculus) (UniProt Q08369). Briefly: Inhibition of GATA4- DNA interaction in mouse C2C12 cells at 100 uM after 24 hrs by EMSA assay. The data set is classed as cell-based.
For data set [18], the target named is Transcription factor GATA-4 (Homo sapiens) (UniProt P43694). The data set is described as follows: Inhibition of GATA4-DNA interaction in HEK293 nuclear extract at 150 uM after 15 mins by EMSA assay. The class given is cell-free.

4 molecules from ChEMBL document CHEMBL1681692, “Identification of new GATA4-small molecule inhibitors by structure-based virtual screening” (Bioorg Med Chem, 2011) can be followed below.

The structures appear in SMILES notation. Active and inactive are the calls of the source. No cut-off for these calls is given here.

Transcription factor GATA-4 (Mus musculus), sequence (Q08369 whole entry): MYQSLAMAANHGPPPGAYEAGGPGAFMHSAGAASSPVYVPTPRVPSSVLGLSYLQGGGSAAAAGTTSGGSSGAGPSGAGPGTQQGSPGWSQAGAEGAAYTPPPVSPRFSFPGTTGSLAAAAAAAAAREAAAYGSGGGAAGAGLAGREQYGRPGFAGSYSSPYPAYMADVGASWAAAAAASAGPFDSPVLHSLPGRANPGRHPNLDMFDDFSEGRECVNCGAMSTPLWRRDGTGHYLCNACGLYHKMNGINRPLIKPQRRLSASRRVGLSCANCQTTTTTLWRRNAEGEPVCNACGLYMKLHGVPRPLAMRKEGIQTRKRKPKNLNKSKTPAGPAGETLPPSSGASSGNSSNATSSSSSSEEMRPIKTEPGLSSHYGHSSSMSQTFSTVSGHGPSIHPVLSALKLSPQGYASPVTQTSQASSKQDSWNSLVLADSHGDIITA
Transcription factor GATA-4 (Homo sapiens), sequence (P43694 whole entry): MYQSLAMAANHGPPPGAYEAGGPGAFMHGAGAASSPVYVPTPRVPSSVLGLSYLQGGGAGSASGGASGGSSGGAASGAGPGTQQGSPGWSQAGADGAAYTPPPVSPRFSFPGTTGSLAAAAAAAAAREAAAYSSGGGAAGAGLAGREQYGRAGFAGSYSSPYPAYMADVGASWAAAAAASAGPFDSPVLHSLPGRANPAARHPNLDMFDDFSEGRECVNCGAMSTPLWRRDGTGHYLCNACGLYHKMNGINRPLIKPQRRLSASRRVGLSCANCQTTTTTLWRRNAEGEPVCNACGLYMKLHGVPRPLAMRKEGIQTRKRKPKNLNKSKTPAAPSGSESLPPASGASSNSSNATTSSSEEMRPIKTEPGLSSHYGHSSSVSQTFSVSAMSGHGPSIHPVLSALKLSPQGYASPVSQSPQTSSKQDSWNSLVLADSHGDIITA

What is called inhibition is the share of the control response that was lost under treatment. Broadly, the logP is a log measure of how a compound divides between an organic and an aqueous phase. High values mean a more lipophilic compound, low ones a more hydrophilic compound. `O=C(O)CC(Cc1ccc2c(c1)OCO2)C(=O)O` (stereo unspecified): the inhibition in data set [1] is 60%; in data set [3] it was 35%; in data set [6] it was “Dose-dependent effect”. Besides, in the data set with HeLa [2], the Drug uptake result is “Active”. The Activity entry in the data set with HEK293 [4], in the data set on HeLa [5], with HEK293 [10], in the data set with C2C12 [11], in the data set with C2C12 [12] and with HeLa [13] was “Non-toxic” each time. In addition, the result in [7] and in [14] was inactive. The inhibition entry in [8], in [9], in data set [15] and in data set [17] was “Active” in each case. In addition, the logP in [16] is less than 0.
As to `O=C(O)c1cc(C(=O)O)cc(S(=O)(=O)NCCO)c1`, the inhibition result in data set [1], in data set [8], in data set [9], in data set [15] and in data set [17] was “Active” each time. In addition, the figures for the inhibition in [18] and in [6] were 70% and “Dose-dependent effect”, respectively. Besides, the Drug uptake result in the data set with HeLa [2] is listed as “Not Active”. For the same molecule, the inhibition entry in [3] is “inactive”. Moreover, the Activity result in the data set with HEK293 [4], with HeLa [5], with HEK293 [10], in the data set with C2C12 [11], in the data set on C2C12 [12] and in the data set with HeLa [13] was “Non-toxic” throughout. In addition, the outcome in data set [7] and in [14] was inactive. Besides, in [16], the logP is less than 0.
Regarding `Cc1cc(C(=O)O)c(C(=O)O)c(O)n1`, the inhibition entry in data set [1], in data set [8] and in data set [17] was “Active” throughout. The inhibition in data set [18] is 70%; in [3] it was 35%; in data set [6], “Dose-dependent effect”. In the data set with HeLa [2], the Drug uptake entry is “Active”. The Activity entry in the data set on HEK293 [4], in the data set on HeLa [5], in the data set on HEK293 [10], in the data set on C2C12 [11], in the data set with C2C12 [12] and with HeLa [13] was “Non-toxic” each time. Besides, the outcome in [7] and in [14] was inactive. For the same molecule, the inhibition result in [9] and in data set [15] was “inactive” each time. The same molecule came in with a log partition coefficient (logP) in data set [16] of less than 0.
Take `NC(=O)c1ncn([C@@H]2O[C@H](COP(=O)(O)O)[C@@H](O)[C@H]2O)n1` [RIBAVIRIN MONOPHOSPHATE]: the inhibition result in data set [1], in data set [8] and in [17] was “Active” throughout. The figures for the inhibition in [18], in data set [3] and in [6] were 70%, 16% and “Dose-dependent effect”, respectively. The Drug uptake entry in the data set with HeLa [2] is “Active”. For the same molecule, the Activity entry in the data set with HEK293 [4], with HeLa [5], in the data set on HEK293 [10], in the data set on C2C12 [11], in the data set on C2C12 [12] and in the data set with HeLa [13] was “Non-toxic” throughout. Besides, the result in [7] and in data set [14] was inactive. For the same molecule, the inhibition result in data set [9] and in [15] was “inactive” each time. Besides, the lipophilicity (logP) in data set [16] was less than 0.
